Data on 25 compounds can be found in US11958812B2, “3, 5-disubstituted pyridine and 3, 5-disubstituted pyridazine derivatives and pharmaceutical use of same” (MITSUBISHI TANABE PHARMA CORPORATION, priority 2018, dated 2024).

One assay deals with human recombinant ATX (Homo sapiens, UniProt Q13822). Briefly: Enzyme inhibition test (choline release from LPC, Amplex UltraRed fluorescence). To be noted: 200 μM LPC substrate, 1 hr at room temperature, read-out: Experimental Example 1 human ATX IC50. In kind it is biochemical. The procedure: [Enzyme Inhibition Test Method]
A mixture (10 μL) of substrate and a set of choline quantification reagents (200 μM LPC (1-Oleoyl-sn-glycero-3-phosphocholine Sigma #L1881), 25 μM Amplex UltraRed reagent (Invitrogen), 0.1 U/mL Peroxidase (TOYOBO), 1 U/mL Choline oxidase (TOYOBO)), prepared with assay buffer (50 mM Tris (pH 8.0), 140 mM NaCl, 5 mM KCl, 1 mM CaCl2, 1 mM MgCl2, 0.1% BSA (Albumin from bovine serum, SIGMA), 0.0025% Triton X-100), enzyme (0.4 ng/μL human recombinant ATX) (10 μL), compound-containing solution (100 nL) were dispensed to a 384-well plate, incubated at room temperature for 1 hr and the fluorescence (Ex. 525 nm/Em. 598 nm) was measured. As the standard, choline chloride was used. With a blank free of enzyme was taken as inhibitory rate 100%, and a control free of inhibitor as inhibitory rate 0%, the inhibitory rate was calculated, and IC50 value was calculated from the inhibitory activity percentage at each concentration.

The next assay concerns the target T1, ATX activity in plasma (Rattus norvegicus, UniProt Q64610).
T1 construct: from tissue; host or cells: plasma of male Wistar rats after oral dosing
The assay can be described thus: Measurement of ATX activity in plasma (ex vivo), rat single administration test. On the set-up: species or system male Wistar rat. As for the experimental part: [Measurement of ATX Activity in Plasma (Ex Vivo)]
A compound administration solution prepared by wet pulverization in a mixer mill (type: MM400) for 10 min and adjusting to a given concentration with 0.5% aqueous carboxymethylcellulose solution was orally administered to male Wistar rat (5-week-old when used) at 5 mL/kg. Blood samples were collected from the cervical vein over time at 8 to 24 hr after administration. The blood was heparin-treated using a micro blood collection tube Capiject (CJ-AL, TERUMO CORPORATION), and the plasma was separated by centrifugation (4° C., 12,000 rpm, for 2 min), and preserved at −80° C. The rats after blood sampling were euthanized by exsanguination from the caudal vena cava under isoflurane inhalation anesthesia. The measurement of ATX activity in plasma was evaluated using the concentration of choline in the plasma, which was liberated from lysophosphatidylcholine (substrate of ATX) by the lysophospholipase D activity of ATX, as an index. An equal amount of 2× assay buffer (200 mM Tris-HCl pH9.0, 10 mM MgCl2, 1 M NaCl, 0.1% Triton X-100) is added to plasma (12 μL) and reacted at 37° C. for 6 hr. The reaction mixture (10 μL) after reaction for 6 hr and 45 μL of reagent R^1 solution (100 mM Tris-HCl pH 8.0, 0.5 mM TOOS, 10 U/mL peroxidase, 0.01% Triton X-100) were added and blended and absorbance at 550-700 nm was measured and used as a prevalue. As the standard, choline chloride was used. 1 mM choline chloride was diluted with 2× assay buffer up to 7 steps in 2-fold serial dilution, R^1 solution was treated similarly and the absorbance was measured. Furthermore, 15 μL of reagent R^2 solution (100 mM Tris-HCl pH 8.0, 1 mM 4-aminoantipyrine, 10 U/mL choline oxidase, 0.01% Triton X-100) was added, and the mixture was reacted at room temperature for 10 min, and absorbance at 550-700 nm was measured. The choline concentration per reaction time was calculated from the difference between the absorbance after R^2 solution addition and prevalue measured before R^2 addition and used as ATX activity value. inhibitory activity (%)=100×{1−[choline concentration (μM) of test substance administration group/choline concentration (μM) of solvent control group]} <calculating formula>

Consider `COc1ccc(-c2cnnc(OC[C@H]3CC[C@H](C(F)(F)F)CC3)c2)cc1[C@@H]1C[C@H]1C(=O)O` [Example 1-2, (1R,2R)-2-[2-methoxy-5-(6-{[trans-4-(trifluoromethyl)cyclohexyl]methoxy}pyridazin-4-yl)phenyl]cyclopropanecarboxylic Acid], for which, on human recombinant ATX, the half-maximal inhibitory concentration (IC50) (in general, the concentration at which inhibition is half-maximal) stood at 5 nM. The “Experimental Example 2 Rat single administration test (inhibitory activity (%) 8 hr after 1 mg/kg oral administration)” value at ATX activity in plasma amounted to 93%.

In the case of `COc1ccc(-c2cncc(CCc3ccc(OC(F)(F)F)cc3)c2)nc1[C@H]1C[C@@H]1C(=O)O` [Example 6, (1S,2S)-2-(5-methoxy-5′-{2-[4-(trifluoromethoxy)phenyl]ethyl}-2,3′-bipyridin-6-yl)cyclopropanecarboxylic Acid], the concentration for half-maximal inhibition (IC50) at human recombinant ATX came to 4 nM. The “Experimental Example 2 Rat single administration test (inhibitory activity (%) 8 hr after 1 mg/kg oral administration)” value at ATX activity in plasma is reported as 71%.

As to `O=C(O)[C@H]1C[C@@H]1c1cccc(-c2cncc(OC[C@H]3CC[C@H](C(F)(F)F)CC3)c2)n1` [Example 8-1, (1S,2S)-2-(5′-{[trans-4-(trifluoromethyl)cyclohexyl]methoxy}-2,3′-bipyridin-6-yl)cyclopropanecarboxylic Acid], the IC50 on human recombinant ATX was found to be 2 nM. In addition, the “Experimental Example 2 Rat single administration test (inhibitory activity (%) 8 hr after 1 mg/kg oral administration)” value on ATX activity in plasma is listed as 92%.

Consider `O=C(O)[C@@H]1C[C@H]1c1cccc(-c2cncc(OC[C@H]3CC[C@H](C(F)(F)F)CC3)c2)n1` [Example 8-2, (1R,2R)-2-(5′-{[trans-4-(trifluoromethyl)cyclohexyl]methoxy}-2,3′-bipyridin-6-yl)cyclopropanecarboxylic Acid], for which the IC50 on human recombinant ATX was determined as 20 nM. In addition, the “Experimental Example 2 Rat single administration test (inhibitory activity (%) 8 hr after 1 mg/kg oral administration)” value on ATX activity in plasma amounted to 47%.

Consider `O=C(O)[C@H]1C[C@@H]1c1cc(-c2cncc(OC[C@H]3CC[C@H](C(F)(F)F)CC3)c2)ccn1` [Example 9-1, (1S,2S)-2-(5-{[trans-4-(trifluoromethyl)cyclohexyl]methoxy}-3,4′-bipyridin-2′-yl)cyclopropanecarboxylic Acid], for which, on human recombinant ATX, the IC50 came to 2 nM. Moreover, on ATX activity in plasma, the “Experimental Example 2 Rat single administration test (inhibitory activity (%) 8 hr after 1 mg/kg oral administration)” value is 94%.

On to `O=C(O)[C@@H]1C[C@H]1c1cc(-c2cncc(OC[C@H]3CC[C@H](C(F)(F)F)CC3)c2)ccn1` [Example 9-2, (1R,2R)-2-(5-{[trans-4-(trifluoromethyl)cyclohexyl]methoxy}-3,4′-bipyridin-2′-yl)cyclopropanecarboxylic Acid], for which the IC50 at human recombinant ATX amounted to 3 nM. The “Experimental Example 2 Rat single administration test (inhibitory activity (%) 8 hr after 1 mg/kg oral administration)” value on ATX activity in plasma is recorded as 94%.

For `O=C(O)c1ccc2c(c1)CCN2c1cncc(OC[C@H]2CC[C@H](C(F)(F)F)CC2)c1` [Example 12, 1-(5-{[trans-4-(trifluoromethyl)cyclohexyl]methoxy}pyridin-3-yl)-2,3-dihydro-1H-indole-5-carboxylic Acid], at human recombinant ATX, the IC50 was found to be 1 nM. Also, the “Experimental Example 2 Rat single administration test (inhibitory activity (%) 8 hr after 1 mg/kg oral administration)” value at ATX activity in plasma is listed as 76%.

As to `O=C(O)CC[C@H]1CN(c2cncc(OCc3ccc(OC(F)(F)F)cc3)c2)CCO1` [Example 14, 3-[(2S)-4-(5-{[4-(trifluoromethoxy)benzyl]oxy}pyridin-3-yl)morpholin-2-yl]propanoic Acid], the IC50 at human recombinant ATX turned out to be 12 nM. Also, the “Experimental Example 2 Rat single administration test (inhibitory activity (%) 8 hr after 1 mg/kg oral administration)” value on ATX activity in plasma turned out to be 92%.

`O=C(O)CC[C@H]1CN(c2cncc(OCc3ccc(C(F)(F)F)cc3)c2)CCO1` [Example 15, 3-[(2S)-4-(5-{[4-(trifluoromethyl)benzyl]oxy}pyridin-3-yl)morpholin-2-yl]propanoic Acid]: the IC50 at human recombinant ATX was determined as 42 nM. For the same compound, at ATX activity in plasma, the “Experimental Example 2 Rat single administration test (inhibitory activity (%) 8 hr after 1 mg/kg oral administration)” value is recorded as 75%.

On to `O=C(O)CC[C@H]1CN(c2cncc(OC[C@H]3CC[C@H](C(F)(F)F)CC3)c2)CCO1` [Example 16, 3-[(2S)-4-(5-{[trans-4-(trifluoromethyl)cyclohexyl]methoxy}pyridin-3-yl)morpholin-2-yl]propanoic Acid], for which, at human recombinant ATX, the IC50 was 13 nM. The “Experimental Example 2 Rat single administration test (inhibitory activity (%) 8 hr after 1 mg/kg oral administration)” value at ATX activity in plasma stood at 89%.

Regarding `O=C(O)/C=C/C[C@@H]1COCCN1c1cncc(OCc2ccc(OC(F)(F)F)cc2)c1` [Example 22-1, (2E)-4-[(3R)-4-(5-{[4-(trifluoromethoxy)benzyl]oxy}pyridin-3-yl)morpholin-3-yl]-2-butenoic Acid], the half-maximal inhibitory concentration (IC50) at human recombinant ATX amounted to 3 nM. The “Experimental Example 2 Rat single administration test (inhibitory activity (%) 8 hr after 1 mg/kg oral administration)” value on ATX activity in plasma is given as 83%.

For `O=C(O)CCCC1CCCN1c1cncc(OCc2ccc(OC(F)(F)F)cc2)c1` (centres unmarked) [Example 23, 4-[1-(5-{[4-(trifluoromethoxy)benzyl]oxy}pyridin-3-yl)pyrrolidin-2-yl]butanoic Acid], the IC50 on human recombinant ATX stood at 11 nM. The “Experimental Example 2 Rat single administration test (inhibitory activity (%) 8 hr after 1 mg/kg oral administration)” value on ATX activity in plasma is given as 83%.

Regarding `COc1ccc(-c2cnnc(OCc3ccc(OC(F)(F)F)cc3)c2)nc1[C@H]1C[C@@H]1C(=O)O` [Example 25], the IC50 at human recombinant ATX was determined as 1 nM. The “Experimental Example 2 Rat single administration test (inhibitory activity (%) 8 hr after 1 mg/kg oral administration)” value on ATX activity in plasma worked out at 91%.

For the compound `COc1ccc(-c2cncc(OCc3ccc(OC(F)(F)F)cc3)c2)nc1[C@H]1C[C@@H]1C(=O)O` [Example 26], at human recombinant ATX, the IC50 was found to be 5 nM. Moreover, the “Experimental Example 2 Rat single administration test (inhibitory activity (%) 8 hr after 1 mg/kg oral administration)” value at ATX activity in plasma was found to be 82%.

In the case of `COc1ccc(-c2cncc(OCc3ccc(C(F)(F)F)cc3)c2)nc1[C@H]1C[C@@H]1C(=O)O` [Example 29], the IC50 at human recombinant ATX amounted to 3 nM. In addition, at ATX activity in plasma, the “Experimental Example 2 Rat single administration test (inhibitory activity (%) 8 hr after 1 mg/kg oral administration)” value is reported as 80%.

In the case of `COc1ccc(-c2cnnc(OCc3ccc(OC(F)(F)F)cc3)c2)cc1C1CC1C(=O)O` (centres unmarked) [Example 31], the half-maximal inhibitory concentration (IC50) on human recombinant ATX came out at 4 nM. Also, at ATX activity in plasma, the “Experimental Example 2 Rat single administration test (inhibitory activity (%) 8 hr after 1 mg/kg oral administration)” value is reported as 90%.

Consider `O=C(O)c1ccc2c(c1)CCN2c1cncc(OCC2CCN(CC(F)(F)F)CC2)c1` [Example 39], for which the IC50 on human recombinant ATX came to 7 nM. Also, the “Experimental Example 2 Rat single administration test (inhibitory activity (%) 8 hr after 1 mg/kg oral administration)” value at ATX activity in plasma is on record as 84%.

Consider `O=C(O)c1ccc(C2CN(c3cncc(OC[C@H]4CC[C@H](C(F)(F)F)CC4)c3)CCO2)cc1` (some centres unmarked) [Example 45], for which, on human recombinant ATX, the concentration for half-maximal inhibition (IC50) amounted to 7 nM. In addition, the “Experimental Example 2 Rat single administration test (inhibitory activity (%) 8 hr after 1 mg/kg oral administration)” value at ATX activity in plasma was 81%.

For the compound `COc1cc(C2CN(c3cncc(OC[C@H]4CC[C@H](C(F)(F)F)CC4)c3)CCO2)ccc1C(=O)O` (some centres unmarked) [Example 46], the IC50 on human recombinant ATX is 2 nM. In addition, the “Experimental Example 2 Rat single administration test (inhibitory activity (%) 8 hr after 1 mg/kg oral administration)” value at ATX activity in plasma was 74%.

Consider `O=C(O)CC[C@H]1CN(c2cncc(OCc3ccc(OC(F)(F)F)cc3F)c2)CCO1` [Example 82], for which, on human recombinant ATX, the IC50 turned out to be 19 nM. At ATX activity in plasma, the “Experimental Example 2 Rat single administration test (inhibitory activity (%) 8 hr after 1 mg/kg oral administration)” value came out at 89%.

As for `Cc1cc(OC(F)(F)F)ccc1COc1cncc(N2CCO[C@@H](CCC(=O)O)C2)c1` [Example 83], on human recombinant ATX, the IC50 came out at 8 nM. Moreover, the “Experimental Example 2 Rat single administration test (inhibitory activity (%) 8 hr after 1 mg/kg oral administration)” value on ATX activity in plasma is reported as 89%.

Turning to `O=C(O)CC[C@H]1CN(c2cncc(OCc3ccc(OC(F)(F)F)c(F)c3)c2)CCO1` [Example 84], at human recombinant ATX, the IC50 was found to be 21 nM. Besides, the “Experimental Example 2 Rat single administration test (inhibitory activity (%) 8 hr after 1 mg/kg oral administration)” value at ATX activity in plasma amounted to 89%.

As for `C[C@@H]1CN(c2cncc(OCc3ccc(OC(F)(F)F)cc3)c2)C[C@H](CCC(=O)O)O1` [Example 87], the half-maximal inhibitory concentration (IC50) on human recombinant ATX amounted to 16 nM. Besides, the “Experimental Example 2 Rat single administration test (inhibitory activity (%) 8 hr after 1 mg/kg oral administration)” value at ATX activity in plasma turned out to be 95%.

With `O=C(O)CC1CCCN(c2cncc(OCc3ccc(OC(F)(F)F)cc3)c2)C1` (centres unmarked) [Example 92], on human recombinant ATX, the IC50 was 57 nM. In addition, the “Experimental Example 2 Rat single administration test (inhibitory activity (%) 8 hr after 1 mg/kg oral administration)” value on ATX activity in plasma is given as 73%.

In the case of `O=C(O)CCC1CN(c2cncc(OCc3ccc(OC(F)(F)F)cc3)c2)CCN1CC(F)(F)F` (centres unmarked) [Example 93], on human recombinant ATX, the half-maximal inhibitory concentration (IC50) was 39 nM. Also, the “Experimental Example 2 Rat single administration test (inhibitory activity (%) 8 hr after 1 mg/kg oral administration)” value on ATX activity in plasma was 70%.
